Laboratory results taken from patent US20080014199A1, “Assessing Cancer And Vimentin” (MAYO FOUNDATION FOR MEDICAL EDUCATION AND RESEARCH, priority 2006, published 2008).
Entries after “also recorded” stand apart in the source; their conditions may differ. No end group written: not given here. fluorescein = fluorescein label conjugated to the peptide

Columns and labels:
CLL B cells = assay: Immunofluorescence staining of CLL B cell cytospins with FPSAHFL-displaying phage or fluorescein labelled polypeptide; format: binding, human; conditions: phage plus fluorescent anti-phage antibodies or fluorescein-labelled polypeptide
Source text: FIG. 2 contains fluorescence photomicrographs showing binding of the FPSAHFL (SEQ ID NO:2) polypeptide to CLL B cells. CLL B cells were placed on slides by cytospining and were stained with phages displaying the FPSAHFL (SEQ ID NO:2) polypeptide and FITC labeled anti-phage antibody (A and D) or were stained directly with fluorescein conjugated FPSAHFL (SEQ ID NO:2) polypeptide (B, C, and E).
Binding of the FPSAHFL (SEQ ID NO:2) polypeptide to CLL B cells was investigated using immunofluorescence. Cytospins of 10^5 CLL B cells (see, Example 1) were prepared and incubated for 20 minutes at room temperature with phages displaying FPSAHFL (SEQ ID NO:2; 10^8 pfu). The cells were then washed twice with PBS and incubated for 15 minutes at room temperature with 10 μg of mouse anti-M13 phage antibodies (New England Biolabs). The cells were stained for 15 minutes at room temperature with 2 μg of fluorescein isothiocyanate (FITC) labelled secondary anti-mouse antibodies (Vector Laboratories Inc, Burlingame, Calif., USA). Non-displaying M13 phages were used as a control (New England Biolabs) and co-staining with 4′-6-Diamidino-2-phenylindole (DAPI) was used to identify cells. […] The purity of the polypeptide preparation (>99.9%) was assessed by mass spectrometry and high performance liquid chromatography using internal standards.

unmutated CLL B cells = assay: Subtraction biopanning with phage display polypeptide library on unmutated versus mutated CLL B cells; format: binding, human
Method: Phages displaying IgVH mutational status-specific polypeptides were isolated. 10^11 plaque forming units (pfu) of PDPL Ph.D.-7 (New England Biolabs, Ipswich, Mass.) were added to 10^6 unmutated CLL B cells suspended in 1 mL of phosphate buffered saline (PBS) containing 0.5% bovine serum albumin (BSA), and the mixture was incubated at room temperature for 1 hour with gentle rocking (FIG. 1A). The cells with attached phages were spun down and washed three times with PBS containing 0.5% BSA (FIG. 1B). The attached phages were then eluted for 20 minutes by adding 1 mL of elution buffer (1% BSA, 0.2 M Glycine-HCl, pH 2.2; FIG. 1C). The elution buffer was neutralized with 0.15 mL of 1 M Tris-HCl (pH 9.1). The eluted phages were precipitated by adding 0.2 mL of a solution containing 20% (w/v) polyethylene glycol 8,000 (Sigma, Saint Louis, Mo.) and 2.5 M NaCl. The eluted phages were then added to a suspension of 10^6 mutated CLL B cells in PBS with 0.5% BSA and incubated with gentle rocking for 40 minutes. The cells with bound phages (FIG. 1D) were spun down, leaving the supernatant containing unbound phages. This latter step was repeated four times to ensure complete subtraction of phages binding to mutated CLL B cells. The unbound phages in the supernatant were titered, amplified and purified as described elsewhere (Nowakowski et al., Stem Cells, 22(6):1030-8 (2004); FIG. 1E). […]

vimentin [1] = target: T1, vimentin (Homo sapiens, UniProt P08670); assay: Immunoprecipitation of CLL B cell lysates with FPSAHFL phage and anti-phage antibodies, Western blotting, nano LC-MS/MS target identification; format: binding
T1 construct: CLL B cell lysates were immunoprecipitated using phage and anti-phage antibodies; endogenous in cells; host or cells: primary CLL B cells (patient leukemic cells), total protein lysate
T1 sequence (P08670 whole entry): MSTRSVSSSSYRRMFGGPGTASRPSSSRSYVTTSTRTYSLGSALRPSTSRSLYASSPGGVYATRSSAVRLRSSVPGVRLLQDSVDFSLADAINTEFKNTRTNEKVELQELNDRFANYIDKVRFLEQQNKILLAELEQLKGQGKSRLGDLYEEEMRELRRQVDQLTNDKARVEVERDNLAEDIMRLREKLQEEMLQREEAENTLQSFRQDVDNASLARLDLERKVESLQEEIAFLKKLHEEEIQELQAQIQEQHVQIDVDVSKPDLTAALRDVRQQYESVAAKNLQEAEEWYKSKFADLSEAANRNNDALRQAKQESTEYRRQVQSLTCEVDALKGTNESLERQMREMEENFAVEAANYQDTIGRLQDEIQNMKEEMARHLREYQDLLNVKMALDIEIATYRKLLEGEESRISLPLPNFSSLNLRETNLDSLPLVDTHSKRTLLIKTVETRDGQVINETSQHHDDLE
Method: (§1) To identify FPSAHFL (SEQ ID NO:2) polypeptide targets, CLL B cell lysates were immunoprecipitated using phage and anti-phage antibodies. Total protein extracts were prepared from primary leukemic cells (see, Example 1) by lysing cells in cold lysis buffer (30 mM Tris-HCl, pH 7.4; 150 mM NaCl; 1% glycerol (v/v); 1% Triton X-100 (v/v); and 2 mM EDTA) in the presence of phosphatase inhibitors (100 mM NaF, 10 mM Na4P2O4, 1 mM Na2VO4), and protease inhibitors (10 μg/mL Leupeptin, 10 μg/mL Pepstatin A, and 1 mM phenylmethylsulfonyl fluoride (PMSF)). After centrifugation to remove cell debris, protein extracts were immunoprecipitated overnight at 4° C. on a rotator with phages displaying FPSAHFL (SEQ ID NO:2; 10^11 pfu[…]), anti-M13 phage antibodies and 40 μL goat anti-mouse IgG-sepharose 4B beads (Zymed, San Francisco, Calif., USA), according to the manufacturer's instructions. The beads were washed three times with lysis buffer, resuspended into a loading buffer and subjected to SDS-PAGE (5%-15%) under reducing conditions. The polypeptide was visualized by Coomassie blue or silver staining. To confirm that the immunoprecipitated polypeptide was indeed the target for FPSAHFL (SEQ ID NO:2) phage, Western blotting was performed using staining with FPSAHFL (SEQ ID NO:2) phage and anti-M13 phage antibodies. Non-displaying phage were used as a control. […]

vimentin [2] = target: T2, vimentin (human (CLL patients), UniProt P08670 2-466); assay: immunoprecipitation from CLL B cell lysate with phage and anti-M13 antibodies; Western blot with phage
T2 construct: Endogenous protein from total protein extracts of CLL patient cells; It ran on SDS-PAGE under reducing conditions for the Western blot; also called 56 kDa band; immunoprecipitated polypeptide
T2 sequence (P08670 2-466 limits assumed): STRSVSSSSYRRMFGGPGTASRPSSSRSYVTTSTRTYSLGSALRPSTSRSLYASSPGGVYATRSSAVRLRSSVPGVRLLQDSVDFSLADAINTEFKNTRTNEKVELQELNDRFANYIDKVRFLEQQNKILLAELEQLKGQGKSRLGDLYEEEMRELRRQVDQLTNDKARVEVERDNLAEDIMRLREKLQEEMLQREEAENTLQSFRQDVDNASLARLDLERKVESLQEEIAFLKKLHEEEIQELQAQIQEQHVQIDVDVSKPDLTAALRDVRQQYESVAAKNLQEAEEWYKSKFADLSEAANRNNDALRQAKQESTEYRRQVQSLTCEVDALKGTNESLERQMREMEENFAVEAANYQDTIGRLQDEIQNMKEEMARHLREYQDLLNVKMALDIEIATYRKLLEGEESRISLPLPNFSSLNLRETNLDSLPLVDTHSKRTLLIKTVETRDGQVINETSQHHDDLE
Method: as §1, with “Na₄P₂O₄,” for “Na4P2O4,”, “Na₂VO₄),” for “Na2VO4),”, “10¹¹” for “10^11”

Row | Molecule | Cellular localization of binding (pattern of staining) (CLL B cells) | Percentage of sequenced single phage colonies encoding the polypeptide (unmutated CLL B cells; fourth round of biopanning) [%] | Percentage of sequenced single phage colonies encoding the polypeptide (unmutated CLL B cells; third round of subtraction biopanning) [%] | Target of the polypeptide identified (vimentin [1]; in-gel trypsin digestion, nano LC-MS/MS, Mascot and Sequest) | Band immunoprecipitated from CLL polypeptides (vimentin [1]; phage bearing the polypeptide and anti-phage antibodies, binding confirmed by Western blotting) [kDa] | binding result (vimentin [2])
1 | FPSAHFL (fluorescein-FPSAHFL) [also synthesized and fluorescein labelled at the N terminus] | localized within the cytoplasm; also recorded: cytoplasmic pattern of staining | 34 | 20 | vimentin | 56 | 
2 | FPSAHFL (peptide, not shown: large carriers, also: displayed on M13 phage coat protein, fusion end not given here, 7-mer selected from the Ph.D.-7 phage display library) [phage displaying the FPSAHFL (SEQ ID NO:2) polypeptide] |  |  |  |  |  | binds
